Laboratory results published in patent publication US11174267B2, “Spiroindolinones and therapeutic uses thereof” (The Regents of the University of California, priority 2015, dated 2021).

How the values were obtained:
Cdr1 = molecular target: T1, Cdr1 (Candida albicans, UniProt Q5ANA3); assay: Efflux of Rhodamine 6G (Cdr1 efflux assay); type: cell-based; details: C. albicans SC5314; R6G 10 μM; Compound 1 0.3, 3 and 30 μM
T1 construct: endogenous in cells; host or cells: Candida albicans SC5314 (wild type)
T1 sequence (Q5ANA3 whole entry): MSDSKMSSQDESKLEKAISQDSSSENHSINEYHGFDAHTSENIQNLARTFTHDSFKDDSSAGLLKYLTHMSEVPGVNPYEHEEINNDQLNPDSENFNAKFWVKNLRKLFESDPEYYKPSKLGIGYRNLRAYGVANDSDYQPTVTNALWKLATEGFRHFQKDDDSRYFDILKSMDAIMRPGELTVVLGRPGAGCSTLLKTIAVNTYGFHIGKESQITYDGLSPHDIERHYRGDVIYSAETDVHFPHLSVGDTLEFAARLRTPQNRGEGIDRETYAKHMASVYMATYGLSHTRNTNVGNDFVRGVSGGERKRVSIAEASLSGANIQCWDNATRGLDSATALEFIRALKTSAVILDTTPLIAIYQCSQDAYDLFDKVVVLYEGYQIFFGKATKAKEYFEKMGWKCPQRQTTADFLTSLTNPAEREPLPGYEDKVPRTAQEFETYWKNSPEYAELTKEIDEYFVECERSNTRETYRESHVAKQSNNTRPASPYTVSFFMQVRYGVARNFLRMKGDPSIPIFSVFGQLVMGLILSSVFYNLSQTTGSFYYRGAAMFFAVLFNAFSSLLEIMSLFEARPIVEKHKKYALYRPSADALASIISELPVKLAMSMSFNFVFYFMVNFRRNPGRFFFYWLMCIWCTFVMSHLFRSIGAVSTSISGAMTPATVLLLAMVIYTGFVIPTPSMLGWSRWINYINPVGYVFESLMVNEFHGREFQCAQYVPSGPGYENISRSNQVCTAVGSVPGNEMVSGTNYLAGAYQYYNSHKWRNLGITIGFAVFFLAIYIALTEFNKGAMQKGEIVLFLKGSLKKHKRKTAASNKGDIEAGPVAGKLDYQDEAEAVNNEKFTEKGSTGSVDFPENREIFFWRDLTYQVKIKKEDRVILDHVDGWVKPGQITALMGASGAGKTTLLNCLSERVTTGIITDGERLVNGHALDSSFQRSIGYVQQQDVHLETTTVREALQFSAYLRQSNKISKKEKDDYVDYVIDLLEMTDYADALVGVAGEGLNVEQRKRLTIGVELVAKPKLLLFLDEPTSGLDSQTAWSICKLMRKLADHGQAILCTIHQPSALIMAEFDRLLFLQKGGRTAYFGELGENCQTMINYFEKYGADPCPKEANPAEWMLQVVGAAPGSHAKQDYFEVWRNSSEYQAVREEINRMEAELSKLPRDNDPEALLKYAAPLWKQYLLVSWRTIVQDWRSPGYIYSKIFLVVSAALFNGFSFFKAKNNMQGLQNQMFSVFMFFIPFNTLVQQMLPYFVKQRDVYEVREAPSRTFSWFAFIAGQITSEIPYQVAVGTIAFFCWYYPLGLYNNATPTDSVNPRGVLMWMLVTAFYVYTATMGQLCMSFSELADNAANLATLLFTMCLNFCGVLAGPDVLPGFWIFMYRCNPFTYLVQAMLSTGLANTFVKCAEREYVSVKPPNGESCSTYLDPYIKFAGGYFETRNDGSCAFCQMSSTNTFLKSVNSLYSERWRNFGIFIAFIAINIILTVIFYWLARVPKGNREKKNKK
Protocol: Efflux of Rhodamine 6 G. Efflux of R6G was measured generally base on a method described previously by Shukla (cited below). Briefly, C. albicans SC5314 grown overnight at 30° C. in SC medium were transferred to fresh SC medium with a 1:50 dilution and grown at 30° C. with constant shaking for about 5 h. Cells were then pelleted, washed twice with phosphate-buffered saline (PBS), and resuspended in PBS as about 3 OD600 nm. The cells were then deenergized for 45 min in […] 2-deoxy-D-glucose. The cells were pelleted, washed and resuspended in PBS as 3 OD600 nm, to which compounds (30 μM or noted) and R6G (10 μM) were added successively and incubated at 30° C. for 40 min. Cells were collected, washed and resuspended in PBS with or without compounds and incubated at 30° C. Two percent glucose was added at time point 20 min to initiate the energy-dependent efflux. Samples were taken out every 10 min and the absorption of the supernatant was detected at 527 nm.
To further determine if the spiroindolinone functions by inhibiting Cdr1, the activity of efflux pumps was determined by monitoring the efflux of R6G, a fluorescent compound that is used for Cdr1 efflux assay in C. albicans. […] Extracellular R6G concentrations were quantified by measuring the absorbance of the supernatant at 527 nm. […]

[1] = system: heterozygous deletion C. albicans strains; assay: Whole genome Haploinsufficiency Profiling (HIP); type: cell-based, Candida albicans; details: 0.05 μM Compound 1 + 0.125 μg/ml FLC vs. 0.125 μg/ml FLC
Protocol: Whole genome Haploinsufficiency Profiling (HIP) analysis. Haplo-Insufficiency Profiling (HIP) with the Double BarCoded (DBC) library was used. A pool of 5,470 heterozygous deletion C. albicans strains constructed by Merck, to identify potential targets for the azole-synergizer, Compound 1. The collection, obtained from Merck Sharp & Dohme Corp in 96-well plates, were transferred to YPD (2% peptone, 1% yeast extract, and 2% glucose) agar plates and grown at 30° C. for 72 h. All colonies were collected from plates and pooled in SC medium, add glycerol to 15% and adjust to the final concentration of 50 OD600 nm per milliliter, store in aliquot at −80° C.
Stock pools were diluted into SC medium to an OD600 nm of 0.0875 and drug treatments were performed in a 1 ml SC medium in 24-well plates. The appropriate drug treatment concentrations were determined before screening. […]
Bioinformatics analysis of HIP. Sequencing reads were first separated by their experimental tags into treatments and then filtered by UPTAG or DNTAG. Among the reads mapped with experimental tags, more than 95% can be filtered exclusively by UPTAG or DNTAGs. Filtered reads were mapped to an artificial genome containing each individual gene in the library identified by UPTAG or DNTAG using bowtie 1.0.
Read counts per gene were calculated using a weighted arithmetic mean of mapped UPTAG and DNTAG read counts. […]

[2] = system: resistant clinical isolates of C. albicans; assay: Screen of resistant clinical isolates, single dose, broth microdilution (growth OD600); type: cell-based, Candida albicans; details: compound 25 3 μM + fluconazole 64 μg/mL, 16 h
From the text: (Flowers, S. A., et al. Eukaryotic Cell 2012, 11, 1289-1299.) The strains grow at dramatically different rates.

SMILES	energy dependent efflux of R6G (Cdr1)	HIP profiling, mutants with significant change in abundance [1]	Growth (OD600) +Cpd25 + Fluc ([2]; clinical isolate 15)	Growth (OD600) +Cpd25 + Fluc ([2]; clinical isolate 16)	Growth (OD600) +Cpd25 + Fluc ([2]; clinical isolate 17)	Growth (OD600) +Cpd25 + Fluc ([2]; clinical isolate 21)	Growth (OD600) +Cpd25 + Fluc ([2]; clinical isolate 22)	Growth (OD600) +Cpd25 + Fluc ([2]; clinical isolate 23)	Growth (OD600) +Cpd25 + Fluc ([2]; clinical isolate 25)	Growth (OD600) +Cpd25 + Fluc ([2]; clinical isolate 26)	Growth (OD600) +Cpd25 + Fluc ([2]; clinical isolate 30)	Growth (OD600) +Cpd25 + Fluc ([2]; clinical isolate 33)	Growth (OD600) +Cpd25 + Fluc ([2]; clinical isolate 36)	Growth (OD600) +Cpd25 + Fluc ([2]; clinical isolate 41)	Growth (OD600) +Cpd25 + Fluc ([2]; clinical isolate 45)	Growth (OD600) +Cpd25 + Fluc ([2]; clinical isolate 49)
Cc1c(Cl)ccc2c1NC(=O)[C@]21N[C@H](Cc2ccccc2)[C@@H]2C(=O)N(c3ccc(F)cc3)C(=O)[C@@H]21 (racemic) [Compound 1, (±)-(3R,3′R,3a′R,6a'S)-3′-benzyl-6-chloro-5′-(4-fluorophenyl)-7-methyl-2′,3′,3a′,6a′-tetrahydro-4′H-spiro[indoline-3,1′-pyrrolo[3,4-c]pyrrole]-2,4′,6′(5′H)-trione]	almost totally inhibited	cdr1/CDR1 emerged as the only mutant that showed a significant change in abundance														
Cc1c(Cl)ccc2c1NC(=O)[C@@]21[C@H]2C(=O)N(c3ccccc3)C(=O)[C@H]2[C@H]2CN(C(=O)OCc3ccccc3)CCN21 (racemic) [Compound 25, (±)-benzyl (3R,3a′R,3b'S,9a'S)-6-chloro-7-methyl-1′,2,3′-trioxo-2′-phenyl-2′,3′,3a′,3b′,4′,6′,7′,9a′-octahydrospiro[indoline-3,9′-pyrrolo[3′,4′:3,4]pyrrolo[1,2-a]pyrazine]-5′(1′H)-carboxylate]			2.64	0.43	0.79	2.02	1.28	0.60	1.59	0.83	5.38	0.88	1.07	6.52	1.03	11.29
